From US20080234262A1 (Wyeth, priority 2007, published 2008)
Read-outs that look alike come from different tables or passages of the source.

What was measured:
PI3K = PI3K (Homo sapiens, UniProt P42336); experiment: Fluorescence polarization assay for PI3K; assay type: biochemical;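 also: PI3K kinase reaction on PIP2 with ATP, 30-60 min, product sensed by GST-GRP with red probe in fluorescence polarization (mP), controls without enzyme and at zero time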
prostate line LNCap = experiment: In vitro cell culture growth assay (MTS), LNCap; assay type: cell-based, human; conditions: Homo sapiens, 72 h, LNCap cells, three days after drug treatment;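 also: viable cell density read by absorbance at 490 nm, growth expressed as percent of vehicle-treated cells on the same plate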
breast line MDA468 = experiment: In vitro cell culture growth assay (MTS), MDA468; assay type: cell-based, human; conditions: Homo sapiens, 72 h, MDA468 cells, three days after drug treatment
Method in brief: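 Three-day drug treatment starting 1 day post-plating; viable cells quantified via MTS metabolism (A490); effect normalised to in-plate vehicle controls as % growth.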

Sequence of PI3K (P42336 whole entry): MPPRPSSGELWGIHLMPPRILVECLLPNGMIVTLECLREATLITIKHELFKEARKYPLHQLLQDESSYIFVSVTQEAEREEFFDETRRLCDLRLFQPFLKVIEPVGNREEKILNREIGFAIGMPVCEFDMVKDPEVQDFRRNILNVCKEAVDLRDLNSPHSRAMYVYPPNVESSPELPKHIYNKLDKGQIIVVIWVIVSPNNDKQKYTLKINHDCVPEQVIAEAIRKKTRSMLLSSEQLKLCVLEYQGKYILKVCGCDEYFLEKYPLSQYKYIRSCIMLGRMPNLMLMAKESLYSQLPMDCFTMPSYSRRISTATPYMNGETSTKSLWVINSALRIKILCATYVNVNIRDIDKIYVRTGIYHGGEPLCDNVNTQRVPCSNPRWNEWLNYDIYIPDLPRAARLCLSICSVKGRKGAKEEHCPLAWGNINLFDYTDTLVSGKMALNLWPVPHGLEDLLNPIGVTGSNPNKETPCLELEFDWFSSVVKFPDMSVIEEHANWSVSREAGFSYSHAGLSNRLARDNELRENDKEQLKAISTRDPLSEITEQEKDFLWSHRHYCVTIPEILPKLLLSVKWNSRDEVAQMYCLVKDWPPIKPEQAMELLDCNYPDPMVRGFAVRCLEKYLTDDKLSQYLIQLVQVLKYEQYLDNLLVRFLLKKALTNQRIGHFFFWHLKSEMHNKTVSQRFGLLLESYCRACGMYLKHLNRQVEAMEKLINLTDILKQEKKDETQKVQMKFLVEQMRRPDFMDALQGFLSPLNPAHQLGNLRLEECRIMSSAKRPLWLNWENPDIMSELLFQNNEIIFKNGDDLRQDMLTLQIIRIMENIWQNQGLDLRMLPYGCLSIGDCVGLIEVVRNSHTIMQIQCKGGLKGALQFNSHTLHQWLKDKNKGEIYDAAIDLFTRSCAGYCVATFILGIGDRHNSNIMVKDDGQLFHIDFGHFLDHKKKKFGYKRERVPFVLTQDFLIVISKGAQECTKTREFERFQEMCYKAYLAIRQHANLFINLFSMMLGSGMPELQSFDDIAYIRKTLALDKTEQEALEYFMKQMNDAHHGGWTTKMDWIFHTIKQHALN
Sequence of PI3K (P27986 whole entry partner): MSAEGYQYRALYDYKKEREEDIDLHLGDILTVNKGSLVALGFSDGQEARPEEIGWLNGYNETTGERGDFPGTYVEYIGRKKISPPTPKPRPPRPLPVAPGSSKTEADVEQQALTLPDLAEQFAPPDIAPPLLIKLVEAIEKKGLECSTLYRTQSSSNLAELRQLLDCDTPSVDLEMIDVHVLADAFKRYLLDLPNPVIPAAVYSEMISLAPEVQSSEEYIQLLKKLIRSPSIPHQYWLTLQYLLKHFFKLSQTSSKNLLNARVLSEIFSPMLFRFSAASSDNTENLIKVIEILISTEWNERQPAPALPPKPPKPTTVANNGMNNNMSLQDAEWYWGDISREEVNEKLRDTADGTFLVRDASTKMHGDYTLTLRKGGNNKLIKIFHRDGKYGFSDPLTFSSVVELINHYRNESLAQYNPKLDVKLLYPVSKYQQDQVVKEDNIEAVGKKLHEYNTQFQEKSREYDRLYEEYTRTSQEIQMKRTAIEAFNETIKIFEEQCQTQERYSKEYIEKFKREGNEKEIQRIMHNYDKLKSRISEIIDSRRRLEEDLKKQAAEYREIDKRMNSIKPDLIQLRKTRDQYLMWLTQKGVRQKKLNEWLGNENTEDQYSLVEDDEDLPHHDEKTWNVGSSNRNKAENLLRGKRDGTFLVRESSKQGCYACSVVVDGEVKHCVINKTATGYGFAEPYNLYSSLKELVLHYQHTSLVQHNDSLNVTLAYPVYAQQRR

Structure (SMILES)	IC50 (PI3K; PI3Kα, read-out: PI3Kα IC50)	IC50 (prostate line LNCap; LNCaP)	IC50 (breast line MDA468)	IC50 (PI3K; PI3Kα IC50, PI3Kα)	IC50 (prostate line LNCap)
O=C(Nc1cccnc1)Nc1ccc(-c2nc(N3CCOCC3)c3cnn(C4CCN(Cc5cccnc5)CC4)c3n2)cc1F [Example 373, 1-(2-fluoro-4-{4-morpholin-4-yl-1-[1-(pyridin-3-ylmethyl)piperidin-4-yl]-1H-pyrazolo[3,4-d]pyrimidin-6-yl}phenyl)-3-pyridin-3-ylurea]	55 nM	40 nM	200 nM	–	–
c1ccc(CN2CCC(n3ncc4c(N5CCOCC5)nc(-c5ccc6nonc6c5)nc43)CC2)cc1 [Compound 190]	1320 nM	6200 nM	6000 nM	–	–
COC(=O)Nc1ccc(-c2nc(N3CCOCC3)c3cnn(C4CCN(Cc5ccc(Cl)nc5)CC4)c3n2)cc1 [Example 454, methyl [4-(1-{1-[(6-chloropyridin-3-yl)methyl]piperidin-4-yl}-4-morpholin-4-yl-1H-pyrazolo[3,4-d]pyrimidin-6-yl)phenyl]carbamate]	619 nM	740 nM	2000 nM	–	–
CCCOC(=O)N1CCC(n2ncc3c(N4CCOCC4)nc(-c4ccc(NC(=O)Nc5ccncc5)cc4)nc32)CC1 [Compound 851, propyl 4-(4-morpholin-4-yl-6-{4-[(pyridin-4-ylcarbamoyl)amino]phenyl}-1H-pyrazolo[3,4-d]pyrimidin-1-yl)piperidine-1-carboxylate]	22 nM	< 27 nM	110 nM	–	–
O=C(Nc1ccc(-c2nc(N3CCOCC3)c3cnn(-c4ccccc4)c3n2)cc1)C1CCNCC1 [Compound 140]	131 nM	2900 nM	1300 nM	–	–
Nc1ncc(-c2nc(N3CCOCC3)c3cnn(C4CCN(C(=O)c5cccnc5)CC4)c3n2)cn1 [Example 215, 5-{4-morpholin-4-yl-1-[1-(pyridin-3-ylcarbonyl)piperidin-4-yl]-1H-pyrazolo[3,4-d]pyrimidin-6-yl}pyrimidin-2-amine]	37 nM	650 nM	1300 nM	–	–
c1cc2cc(-c3nc(N4CCOCC4)c4cnn(CCN5CCCCC5)c4n3)ccc2[nH]1 [Compound 125]	9750 nM	4400 nM	7300 nM	–	–
CNC(=O)Nc1ccc(-c2nc(N3CCOCC3)c3cnn(C4CCS(=O)(=O)CC4)c3n2)cc1 [Compound 869, 1-{4-[1-(1,1-dioxidotetrahydro-2H-thiopyran-4-yl)-4-morpholin-4-yl-1H-pyrazolo[3,4-d]pyrimidin-6-yl]phenyl}-3-methylurea]	74 nM	540 nM	590 nM	–	–
CCOC(=O)N1CCC(n2ncc3c(N4CCOCC4)nc(-c4ccc(NC(=O)Nc5ccccn5)cc4)nc32)CC1 [Compound 815, ethyl 4-(4-morpholin-4-yl-6-{4-[(pyridin-2-ylcarbamoyl)amino]phenyl}-1H-pyrazolo[3,4-d]pyrimidin-1-yl)piperidine-1-carboxylate]	3810 nM	1500 nM	5000 nM	–	–
COC(=O)Nc1ccc(-c2nc(N3CCOCC3)c3cnn(C4CCN(C(=O)c5ccccc5OC)CC4)c3n2)cc1 [Example 446, methyl (4-{1-[1-(2-methoxybenzoyl)piperidin-4-yl]-4-morpholin-4-yl-1H-pyrazolo[3,4-d]pyrimidin-6-yl}phenyl)carbamate]	888 nM	350 nM	900 nM	–	–
O=C(c1ccc(F)nc1)N1CCC(n2ncc3c(N4CCOCC4)nc(-c4ccc5[nH]ccc5c4)nc32)CC1 [Compound 201]	2020 nM	740 nM	3000 nM	–	–
CCOC(=O)N1CCC(n2ncc3c(N4CCOC[C@H]4C)nc(-c4ccc(NC(=O)NC)cc4)nc32)CC1 [Compound 888, ethyl 4-(6-{4-[(methylcarbamoyl)amino]phenyl}-4-[(3R)-3-methylmorpholin-4-yl]-1H-pyrazolo[3,4-d]pyrimidin-1-yl)piperidine-1-carboxylate]	1990 nM	10 nM	220 nM	–	–
Oc1cccc(-c2nc(N3CCOCC3)c3cnn(C4CCNCC4)c3n2)c1 [Compound 9]	36 nM	370 nM	2200 nM	–	–
CNC(=O)Nc1ccc(-c2nc(N3CCOCC3)c3cnn(C4CCN(C(=O)c5ccc(OC)cc5)CC4)c3n2)cc1 [Example 363, 1-(4-{1-[1-(4-methoxybenzoyl)piperidin-4-yl]-4-morpholin-4-yl-1H-pyrazolo[3,4-d]pyrimidin-6-yl}phenyl)-3-methylurea]	55 nM	45 nM	400 nM	–	–
CNC(=O)Nc1ccc(-c2nc(N3CCOCC3)c3cnn(C4CCN(C(=O)c5ccc(F)cc5)CC4)c3n2)cc1 [Compound 607, 1-(4-{1-[1-(4-fluorobenzoyl)piperidin-4-yl]-4-morpholin-4-yl-1H-pyrazolo[3,4-d]pyrimidin-6-yl}phenyl)-3-methylurea]	108 nM	27 nM	90 nM	–	–
CN(C)c1ccc(CN2CCC(n3ncc4c(N5CCOCC5)nc(-c5ccc6[nH]ccc6c5)nc43)CC2)cc1 [Example 58]	428 nM	1200 nM	1500 nM	–	–

Structure (SMILES)	IC50 (PI3K; PI3Kα, read-out: PI3Kα IC50)	IC50 (prostate line LNCap; LNCaP)	IC50 (breast line MDA468)	IC50 (PI3K; PI3Kα IC50, PI3Kα)	IC50 (prostate line LNCap)
Nc1ccc(-c2nc(N3CCOCC3)c3cnn(C4CCC5(CC4)OCCO5)c3n2)cc1 [Compound 565, 4-[1-(1,4-dioxaspiro[4.5]dec-8-yl)-4-morpholin-4-yl-1H-pyrazolo[3,4-d]pyrimidin-6-yl]aniline]	2050 nM	1100 nM	7200 nM	–	–
CN(C)CCNC(=O)c1ccc(-c2nc(N3CCOCC3)c3cnn(-c4ccccc4)c3n2)cc1 [Compound 103]	580 nM	3900 nM	5000 nM	–	–
CCOC(=O)N1CCC(n2ncc3c(N4CCOCC4)nc(-c4ccc(Nc5ncc[nH]5)cc4)nc32)CC1 [Compound 887, ethyl 4-{6-[4-(1H-imidazol-2-ylamino)phenyl]-4-morpholin-4-yl-1H-pyrazolo[3,4-d]pyrimidin-1-yl}piperidine-1-carboxylate]	168 nM	1200 nM	2300 nM	–	–
CCOC(=O)N1CCC(n2ncc3c(N4CCOC[C@@H]4C)nc(-c4ccc(NC(=O)Nc5cccnc5)cc4)nc32)CC1 [Compound 897, ethyl 4-(4-[(3S)-3-methylmorpholin-4-yl]-6-{4-[(pyridin-3-ylcarbamoyl)amino]phenyl}-1H-pyrazolo[3,4-d]pyrimidin-1-yl)piperidine-1-carboxylate]	28 nM	40 nM	320 nM	–	–
COCC(=O)N1CCC(n2ncc3c(N4CCOCC4)nc(-c4ccc5[nH]ccc5c4)nc32)CC1 [Example 40]	3750 nM	800 nM	900 nM	–	–
c1ccc(-n2ncc3c(N4CCOCC4)nc(-c4cc5ccccc5o4)nc32)cc1 [Compound 112]	1910 nM	15000 nM	60000 nM	–	–
COC(=O)N1CCC(n2ncc3c(N4CCOCC4)nc(-c4ccc(NC(=O)Oc5ccc(Cl)cc5)cc4)nc32)CC1 [Compound 950, methyl 4-[6-(4-{[(4-chlorophenoxy)carbonyl]amino}phenyl)-4-morpholin-4-yl-1H-pyrazolo[3,4-d]pyrimidin-1-yl]piperidine-1-carboxylate]	–	–	17000 nM	9010 nM	4900 nM
COc1cccc(-c2nc(N3CCOCC3)c3cnn(C4CCN(Cc5ccccc5)CC4)c3n2)c1 [Example 32]	1440 nM	8800 nM	10000 nM	–	–
O=C(Nc1ccc(-c2nc(N3CCOCC3)c3cnn(C4CCN(C(=O)c5cccnc5)CC4)c3n2)cc1)Nc1ccccn1 [Compound 592, 1-(4-{4-morpholin-4-yl-1-[1-(pyridin-3-ylcarbonyl)piperidin-4-yl]-1H-pyrazolo[3,4-d]pyrimidin-6-yl}phenyl)-3-pyridin-2-ylurea]	260 nM	95 nM	700 nM	–	–
c1cc2cc(-c3nc(N4CCOCC4)c4cnn(C5CCC6(CC5)OCCO6)c4n3)ccc2[nH]1 [Compound 142]	1490 nM	320 nM	2200 nM	–	–
Nc1ccnc(-c2nc(N3CCOCC3)c3cnn(C4CCN(C(=O)c5cccnc5)CC4)c3n2)c1 [Compound 434, 2-{4-morpholin-4-yl-1-[1-(pyridin-3-ylcarbonyl)piperidin-4-yl]-1H-pyrazolo[3,4-d]pyrimidin-6-yl}pyridin-4-amine]	6660 nM	39000 nM	60000 nM	–	–
NNC(=O)Nc1ccc(-c2nc(N3CCOCC3)c3cnn(C4CCN(C(=O)c5cccnc5)CC4)c3n2)cc1 [Example 306, N-(4-{4-morpholin-4-yl-1-[1-(pyridin-3-ylcarbonyl)piperidin-4-yl]-1H-pyrazolo[3,4-d]pyrimidin-6-yl}phenyl)hydrazinecarboxamide]	398 nM	10000 nM	14000 nM	–	–
Cc1ccc(C(=O)N2CCC(n3ncc4c(N5CCOCC5)nc(-c5ccc6[nH]ccc6c5)nc43)CC2)cc1 [Example 53]	846 nM	220 nM	3900 nM	–	–
CN1CCC(C(=O)Nc2ccc(-c3nc(N4CCOCC4)c4cn[nH]c4n3)cc2)CC1 [Compound 530, 1-methyl-N-[4-(4-morpholin-4-yl-1H-pyrazolo[3,4-d]pyrimidin-6-yl)phenyl]piperidine-4-carboxamide]	885 nM	5300 nM	22000 nM	–	–
Cc1ccc(CN2CCC(n3ncc4c(N5CCOCC5)nc(-c5ccc6[nH]ccc6c5)nc43)CC2)cc1 [Example 56]	425 nM	2000 nM	2700 nM	–	–
CCNC(=O)Nc1ccc(-c2nc(N3CCOC[C@@H]3C)c3cnn(C4CCN(C(=O)OCC)CC4)c3n2)cc1 [Compound 894, ethyl 4-(6-{4-[(ethylcarbamoyl)amino]phenyl}-4-[(3S)-3-methylmorpholin-4-yl]-1H-pyrazolo[3,4-d]pyrimidin-1-yl)piperidine-1-carboxylate]	553 nM	100 nM	960 nM	–	–
